Test: Screening test of saccharides: thickness of tableted product tableted to hardness 5 N
Format: physicochemical
Settings: protein powder and saccharide weight ratio 1:1, tableted to hardness 5 N; compared among eight saccharides (Fig. 1)
Source text: The tableting characteristics of various saccharides were confirmed, and saccharides suitable for the production of a solid molded body were screened. First, 2.0 g each (within an error of 0.003 g) of a protein powder (WPC392 manufactured by Fonterra Japan Limited) and any one of the saccharides shown below were weighed and mixed to prepare a composition containing 50 parts by weight each of the protein and the saccharide (weight ratio 1:1). Each of the obtained compositions was tableted with the tableting force appropriately adjusted so that the composition would have a hardness of 5 N after being tableted. As a result, a tableted product having a hardness of 5 N was obtained. The thickness of the obtained tableted product was measured. Note that in the Examples, the thicknesses of a tableted product and a solid molded body are values each measured using a caliper (ABS digimatic caliper CD-AX, manufactured by Mitutoyo Corporation), and the hardnesses of a tableted product and a solid molded body are values each measured using a load cell type tablet hardness tester (PC-30 manufactured by OKADA SEIKO CO., LTD.).

thickness of the tableted product: largest thickness
SMILES: OC[C@H]1O[C@H](O[C@H]2[C@H](O)[C@@H](O)C(O)O[C@@H]2CO)[C@H](O)[C@@H](O)[C@@H]1O (mixture of isomers) [maltose, Maltose]

From patent EP4817425A1, “COMPOSITION AND SOLID MOLDED BODY” (Nagase & Co., Ltd., priority 2023, dated 2025)
